The structures appear in SMILES notation.

This assay deals with T1, Tyrosinase (Homo sapiens, UniProt P14679).
T1 sequence (P14679 whole entry): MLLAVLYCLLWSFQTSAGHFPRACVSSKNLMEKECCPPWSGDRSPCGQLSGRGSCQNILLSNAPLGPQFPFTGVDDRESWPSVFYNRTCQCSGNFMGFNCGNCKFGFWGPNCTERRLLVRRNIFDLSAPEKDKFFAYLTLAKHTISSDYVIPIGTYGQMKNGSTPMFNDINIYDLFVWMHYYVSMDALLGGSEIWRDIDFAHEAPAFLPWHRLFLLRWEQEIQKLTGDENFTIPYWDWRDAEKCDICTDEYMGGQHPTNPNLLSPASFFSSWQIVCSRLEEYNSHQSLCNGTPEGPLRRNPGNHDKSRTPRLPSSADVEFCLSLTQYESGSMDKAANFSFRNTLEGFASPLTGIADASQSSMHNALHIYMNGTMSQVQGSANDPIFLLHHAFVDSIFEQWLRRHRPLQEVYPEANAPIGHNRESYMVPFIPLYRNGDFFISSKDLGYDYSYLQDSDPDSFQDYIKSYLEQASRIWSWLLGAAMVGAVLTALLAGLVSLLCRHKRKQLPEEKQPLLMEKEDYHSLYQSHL
The experiment in a line: Inhibition of tyrosinase.
Compound `COc1cc(-c2cccc(O[C@@H]3O[C@H](CO)[C@@H](O)[C@H](O)[C@H]3O)c2O)cc(OC)c1O` [FORTUNEANOSIDE D] yielded an IC50 of 70 µM.

In the case of `COc1ccccc1-c1cc(OC)c(O)c(OC)c1O[C@@H]1O[C@H](CO)[C@@H](O)[C@H](O)[C@H]1O` [FORTUNEANOSIDE B], 2210 µM corresponded to half-maximal inhibition (IC50).

`COc1cc(-c2ccc(O[C@@H]3O[C@H](CO)[C@@H](O)[C@H](O)[C@H]3O)c(O)c2)cc(OC)c1O` [FORTUNEANOSIDE E] yielded an IC50 of 140 µM.

The compound `COc1cc(-c2ccccc2O[C@@H]2O[C@H](CO)[C@@H](O)[C@H](O)[C@H]2O)cc(OC)c1O` [FORTUNEANOSIDE C] gave an IC50 of 450 µM.

What is called IC50 is the midpoint of a concentration-inhibition curve. Read a high IC50 as lower potency.

Values taken from ChEMBL document CHEMBL1142601, “Biphenyl glycosides from the fruit of Pyracantha fortuneana” (J Nat Prod, 2006).
